Our source for the Tumor growth values is patent publication US20250188078A1, “SMALL MOLECULE INHIBITORS OF THE CRL4 UBIQUITIN LIGASE” (Cornell University, priority 2022, published 2025).

In the assay the test system is CUL4A^high xenograft and PDX tumors. The assay is described as follows: CUL4A^high xenograft and PDX tumor growth. Format: in vivo, mouse. To be noted: 50 mg/kg intraperitoneal; breast cancer xenograft and colorectal cancer PDX models, FIGS. 8A-8C. How it is done: Measurements were performed according to the following procedure. Mouse body weights were monitored using a scale. Tumors were assessed and volumes measured with fine calipers twice a week. The tumor volumes were calculated with the formula: Volume=(Length×Width^2)/2. Compound PA99 was administered via intraperitoneal doses in an amount of 50 mg/kg every X days, where X is the number of days shown in FIGS. 8A-8C.

Regarding `CN(c1ccc(-c2nc(C(=O)O)cc3c2[nH]c2cccc(F)c23)cc1)S(=O)(=O)c1ccccc1` [PA99, 5-fluoro-1-(4-(N-methylphenylsulfonamido)phenyl)-9H-pyrido[3,4-b]indole-3-carboxylic acid], the Tumor growth result is listed as “suppression”.
